Assay results as given in PubChem BioAssay AID1963833 (Molecular Pharmacology Branch, DTP, NCI, 2024).

Test system: 883617-216-R-J1-PDC complex spheroid viability
Assay: Anticancer human tumor 883617-216-R-J1-PDC patient-derived bladder carcinoma cell line growth inhibition [POLQ]
Conditions: for viability, T/C: stronger effect = lower value
Procedure: Multicellular complex tumor spheroid response to Polymerase (POL) inhibitors (novobiocin, ART-558, RP6685) in combination with a variety of drugs and investigational agents in selected tumor cell lines
The POL inhibitors (novobiocin, ART-558, and RP6685) were evaluated both individually and in combination with standard of care and investigational anticancer small molecules within a complex spheroid model of solid tumors. . Complex spheroids include a stromal component modeled by human endothelial cells (HUVEC) and fibroblasts modeled by human mesenchymal stem cells (MSCs). The concentration ranges selected for each drug and investigational agent were based upon clinically achievable concentrations if the clinical Cmax of the agent was known.
Compounds. The drugs and investigational agents: novobiocin (NSC847541), ART-558 (NSC835418), RP-6685 (NSC848927), peposertib (NSC802822), ceralasertib (NSC780249), elimusertib (NSC800525), camonsertib (NSC841442), AZD-1390 (NSC803789), olaparib (NSC753686), talazoparib (NSC767125), rucaparib (NSC756644), sotorasib (NSC818433), MRTX-1133 (NSC836407), SN-38 (NSC673596), topotecan (NSC609699), epotoside (NSC141540), doxorubicin (NSC123127), gemcitabine (NSC613327), 5-fluorouracil (NSC19893), paclitaxel (NSC125973), vemurafenib (NSC761431), MSA-2 (NSC828583), SN-011 (NSC837082), adavosertib (NSC754352), prexasertib (NSC758257), carboplatin (NSC241240) and oxaliplatin (NSC266046), were obtained from the National Cancer Institute (NCI) Developmental Therapeutics Program Chemical Repository (21). The FDA-approved anticancer drug set is available from the Developmental Therapeutics Program at https://dtp.cancer.gov/organization/dscb/obtaining/. […] The stock solutions were prepared in dimethyl sulfoxide (DMSO, Sigma-Aldrich, St. Louis, MO, cat. D2650), except for the platinum compounds which were prepared in saline (Quality Biological, Gaithersburg, MD, cat. 114-055-101), at 800-fold the tested concentration and stored at -70 degrees C prior to their use. All drugs and investigational agents were tested over a range starting from a high concentration at or near the clinical Cmax and decreasing in half-log increments. If the clinical Cmax for an agent had not been determined, the highest concentration tested was 10 microM, except for SN-38, which was tested at a high concentration of 1 microM.
Cell Culture. All cells were maintained in an incubator at 37 degrees C and 5% CO2 with 95% humidity. The PDC lines were cultured according to standard operating procedures established by the NCI PDMR (https://pdmr.cancer.gov). Table 3 of the manuscript, lists the cell lines along with the number of the three cell types plated to form the mct-spheroids and media for tumor cell growth. After thawing, all PDC lines, except 997537-175-T-J1-PDC and 415267-285-R-J2-PDC, were cultured in Matrigel-coated flasks prepared with a working solution of 1X Ham's F-12 nutrient mix, without supplementation (Thermo Fisher Scientific, cat. 11765054), 100 U/mL penicillin-streptomycin (Thermo Fisher Scientific, cat. 15140122), and 2.5% Matrigel (Corning Inc., Corning, NY, cat. 354248) for the first three passages. The two PDC lines 997537-175-T-J1-PDC and 415267-285-R-J2-PDC were cultured on uncoated flasks. The 857933-349-R-J2-PDC line was cultured in 6C/Colon 1B media containing advanced DMEM/F-12 (Thermo Fisher Scientific, cat. 12634028), 10 mM HEPES (Thermo Fisher Scientific, cat. 15630080), 1X GlutaMAX supplement (Thermo Fisher Scientific, cat. 35050061), 0.1 mg/mL primocin (InvivoGen, San Diego, CA, cat. ant-pm-2), 10% defined fetal bovine serum, heat inactivated (HyClone Laboratories Inc., Logan, UT, cat. SH30070.03HI), 50% L-WRN conditioned media (ATCC, cat. CRL-3276), 1.25 mM N-Acetyl-L-cysteine (Sigma-Aldrich, cat. A9165), 10 mM nicotinamide (Sigma-Aldrich, cat. N0636), 1X B-27 supplement (Thermo Fisher Scientific, cat. 17504044), 1X N-2 supplement (Thermo Fisher Scientific, cat. […]
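Further: spheroids exposed to compounds for seven days before readout.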
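Wherever viability, T/C is given: 100% = DMSO vehicle control viability.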

Q: What does the source list for CC(C)n1c(=O)n(C)c2cnc3cc(F)c(-c4ccc(OCCCN5CCCCC5)nc4)cc3c21 + Nc1ccc(C#CCN(C(=O)Cc2ncc(C(F)(F)F)cc2C(F)(F)F)c2ccc(F)cc2)nn1?
A: IC50 (curve of first compound, second compound 0.0316 µM): > 10 µM; IC50 (curve of first compound, second compound 0.1 µM): > 10 µM; IC50 (curve of first compound, second compound 0.316 µM): > 10 µM; IC50 (curve of first compound, second compound 1 µM): > 10 µM; IC50 (curve of first compound, second compound 3.16 µM): > 10 µM; IC50 (curve of first compound, second compound 10 µM): > 10 µM; viability, T/C (second compound 0.0316 µM, first compound 0.0316 µM): 95.3%; viability, T/C (second compound 0.0316 µM, first compound 0.1 µM): 94.5%; viability, T/C (second compound 0.0316 µM, first compound 0.316 µM): 96%; viability, T/C (second compound 0.0316 µM, first compound 1 µM): 108%; viability, T/C (second compound 0.0316 µM, first compound 3.16 µM): 82.6%; viability, T/C (second compound 0.0316 µM, first compound 10 µM): 75.6%; viability, T/C (second compound 0.1 µM, first compound 0.0316 µM): 95.7%; viability, T/C (second compound 0.1 µM, first compound 0.1 µM): 114%; viability, T/C (second compound 0.1 µM, first compound 0.316 µM): 87.6%; viability, T/C (second compound 0.1 µM, first compound 1 µM): 100%; viability, T/C (second compound 0.1 µM, first compound 3.16 µM): 95%; viability, T/C (second compound 0.1 µM, first compound 10 µM): 69.8%; viability, T/C (second compound 0.316 µM, first compound 0.0316 µM): 112%; viability, T/C (second compound 0.316 µM, first compound 0.1 µM): 89.5%; viability, T/C (second compound 0.316 µM, first compound 0.316 µM): 98.9%; viability, T/C (second compound 0.316 µM, first compound 1 µM): 119%; viability, T/C (second compound 0.316 µM, first compound 3.16 µM): 80.8%; viability, T/C (second compound 0.316 µM, first compound 10 µM): 73.8%; viability, T/C (second compound 1 µM, first compound 0.0316 µM): 108%; viability, T/C (second compound 1 µM, first compound 0.1 µM): 104%; viability, T/C (second compound 1 µM, first compound 0.316 µM): 113%; viability, T/C (second compound 1 µM, first compound 1 µM): 104%; viability, T/C (second compound 1 µM, first compound 3.16 µM): 92.2%; viability, T/C (second compound 1 µM, first compound 10 µM): 72.7%; viability, T/C (second compound 3.16 µM, first compound 0.0316 µM): 101%; viability, T/C (second compound 3.16 µM, first compound 0.1 µM): 95.7%; viability, T/C (second compound 3.16 µM, first compound 0.316 µM): 104%; viability, T/C (second compound 3.16 µM, first compound 1 µM): 98%; viability, T/C (second compound 3.16 µM, first compound 3.16 µM): 98.3%; viability, T/C (second compound 3.16 µM, first compound 10 µM): 76.4%; viability, T/C (second compound 10 µM, first compound 0.0316 µM): 117%; viability, T/C (second compound 10 µM, first compound 0.1 µM): 121%; viability, T/C (second compound 10 µM, first compound 0.316 µM): 120%; viability, T/C (second compound 10 µM, first compound 1 µM): 103%; viability, T/C (second compound 10 µM, first compound 3.16 µM): 109%; viability, T/C (second compound 10 µM, first compound 10 µM): 81.8%

Q: Cc1cccc(N(C)C(=O)C2C(O)CCN2c2nc(C)cc(C(F)(F)F)c2C#N)c1 (centres undefined) was tested. Which viability, T/C (compound 0.0316 µM) did it give?
A: 102% [middle of 13 runs]

Q: And the viability, T/C (compound 0.316 µM)?
A: 99.2% [middle of 13 runs]

Q: What about the viability, T/C (compound 1 µM) of the same compound?
A: 100% [middle of 13 runs]

Q: And the viability, T/C (compound 3.16 µM)?
A: 101% [middle of 13 runs]

Q: And the viability, T/C (compound 10 µM)?
A: 105% [middle of 13 runs]

Q: What about the IC50 (compound alone, run of 01/08/2024) of the same compound?
A: > 10 µM

Q: And the IC50 (compound alone, run of 01/19/2024)?
A: > 10 µM
